The record followed here is patent publication US7314858B2, “Retrocyclins: antiviral and antimicrobial peptides” (priority 2001, dated 2008).

One assay deals with gp120 (BaL). The assay can be described thus: Surface plasmon resonance binding. More on the design: species or system HIV-1. The settings on record: immobilized gp120(BaL). The text has this: (§1) Surface plasmon resonance. Recombinant human soluble CD4 (full-length 45 kDa glycosylated ectodomain) was produced by ExpresSF+S. frugiperda cells in serum-free medium (Protein Sciences Corporation, Meriden, Conn.). Glycosylated HIV-1 gp120 (LAV) envelope glycoprotein (Catalog No. 2003-LAV) was purchased from the same source. Recombinant HIV-1BaL was obtained through the AIDS Research and Reference Reagent Program, Division of AIDS, National Institute of Allergy and Infectious Disease, NIH.
(§2) Surface plasmon resonance (SPR) experiments were done with a Biacore 2000 system (Biacore, Inc., Piscataway, N.J.). The running buffer (pH 7.4) contained 10 mM HEPES, 150 mM NaCl, 3 mM EDTA and 0.005% polysorbate 20. The immobilized proteins (gp120-LAV and CD4) were dissolved at 20 μg/ml in 10 mM sodium acetate, pH 5.0 and immobilized on a Biacore CM5 sensor chip using the amine coupling method. The chip was activated by mixing 400 mM EDC (N-ethyl-N-(3-dimethylaminopropyl)-carbodiimide hydrochloride) and 100 mM N-hydroxysuccinimide. […] Residual reactive groups on the chip surface were blocked using 1.0 Methanolamine/HCl, pH 8.5.
(§3) The flow cell chip used as a control lacked immobilized protein but was otherwise treated as above. Signals were corrected for nonspecific binding by subtracting the control signal. To regenerate the chip surface, bound ligands were removed with 10 mM HCl. Data were analyzed with BIAevaluation 3.1 software. Curve fitting was done with an assumption of 1:1 binding.
(§4) In those experiments, biosensor chips containing immobilized gp120 or CD4 were perfused with a 1 μg/ml solution of the peptides, and binding was measured by surface plasmon resonance. […] No binding studies were performed with gp120 preparations derived from non-B HIV-1 subtypes.

For another assay, the system named is HIV-1 strain JR-CSF. Briefly: HIV-1 JR-CSF infection of CD4+ PBMC, p24 antigen ELISA. To be noted: JR-CSF (R5), peptide 10-20 μg/ml. It counts as cell-based. How it is done:
FIG. 5A-C. Anti-HIV-1 activity of retrocyclin. Two strains of HIV-1 and two types of human target cells were used. The IIIB strain is T-cell tropic (X4) and utilizes the CXCR4 co-receptor for entry; the JR-CSF strain is M-tropic (R5) and uses CCR5 for entry. PBMC signifies CD4^+-selected peripheral blood mononuclear cells. […] (A) Two concentrations of retrocyclin (2 μg/ml, 20 μg/ml), 20 μg/ml of the Rhesus circular defensin “RTD-1”, and 20 μg/ml of a horseshoe crab-derived peptide “T140”, reported to only prevent X4 infections, were tested in antiviral assays of against strain IIIB in H9 cells (n=2-6 per peptide; error bars indicate SEM). (B) To confirm our results with primary human cells, similar assays were performed utilizing IIIB virus and CD4^+ PBMC or (C) JR-CSF virus and CD4^+ PBMC. Peptides were not cytotoxic at indicated concentrations, measured by trypan blue exclusion. Average of duplicate experiments are reported for studies with PBMCs. Assay sensitivity=10 pg/ml.
Either HIV-1-permissive H9 cells were used as targets, or primary CD4^+ lymphocytes from HIV-1-seronegative donors generated from freshly purified peripheral blood mononuclear cells (PBMC) stimulated with a CD3-CD8 bispecific monoclonal antibody. After approximately 7 days, when 98% of these cells co-expressed CD3 and CD4, they were infected with HIV-1 with or without retrocyclin or other test peptide. These cells were maintained in RPMI containing 10% FCS supplemented with 2 mM glutamine, 100 U of penicillin/ml, 10 μg of streptomycin/ml, and 50 U of interleukin 2/ml (R10-50 media).
The p24 assay results shown in FIG. 9 are on a logarithmic scale. A horizontal reference line that passes through 100 on the ordinate scale corresponds to […] of p24 antigen. Results from 3 experiments (each performed with PBMC from a different donor) are shown.

The test system of a further assay is HSV-2. Briefly: HSV inactivation microplate assay on ME-180 cells (MTT). It counts as cell-based. To be noted: 2-50 μg/ml, 2 hrs with virus, 72 hrs culture. How it is done: FIG. 14. Inactivation of HSV-1 and HSV-2 by retrocyclin and RC-101. Retrocyclin (left panel) and RC-101 (right panel) at the indicated concentrations were incubated with herpes simplex virus, type 1 (HSV-1) or HSV-2 for 2 hrs and then added to ME-180 cell monolayers. Cells were incubated at 37° C. for 72 hrs, and cytotoxicity was measured with an MTT kit.
Some retrocyclins are slightly active against herpes simplex virus (HSV). To determine if the activity of retrocyclin against HIV-1 was specific or representative of a more global antiviral effect, it was tested its ability to prevent HSV infection in vitro. A quantitative microplate assay was used to screen retrocyclin and retrocyclin-congeners for their ability to inactivate HSV type 1 (HSV-1) and HSV-2. The assay utilized small amounts of peptide and simultaneously evaluated for peptide-induced cytotoxicity. In brief, final peptide concentrations of 2-50 μg/ml were incubated with virus stocks for 2 hrs and added directly to ME-180 human cervical carcinoma cells. Cultures were incubated at 37° C. for 72 hrs and cytotoxicity was measured using a 3-(4,5-dimethylthiazon-2-yl)-2,5-diphenyltetrazolium bromide (MTT) cell proliferation kit (Boehringer-Mannheim, Germany). Calculations to assess antiviral activity and compute “percent protection” are delineated in (90).

The next assay deals with T1, CD4 (Homo sapiens, UniProt P01730).
T1 construct: Recombinant human soluble CD4 (full-length 45 kDa glycosylated ectodomain); purchased Protein Sciences Corporation, Meriden, Conn; host or cells: ExpresSF+ S. frugiperda cells
The assay can be described thus: Surface plasmon resonance binding. To be noted: immobilized CD4.
From the text: as §1, §2, §3, §4
In general terms: SPR reads the build-up and loss of mass on a sensor chip optically.

“Also recorded” adds a separate entry of the source. Where a SMILES comes first, the peptide text is derived from it. Bridges are numbered along the chain shown (N, C = ends).

Consider `CC[C@H](C)[C@@H]1NC(=O)CNC(=O)[C@H](CCCNC(=N)N)NC(=O)CNC(=O)[C@@H]2CSSC[C@H](NC1=O)C(=O)N[C@@H](CCCNC(=N)N)C(=O)N[C@H]1CSSC[C@H](NC(=O)[C@H](CCCNC(=N)N)NC(=O)[C@@H]3CSSC[C@H](NC(=O)[C@H]([C@@H](C)CC)NC1=O)C(=O)NCC(=O)N[C@@H](CCCNC(=N)N)C(=O)NCC(=O)N[C@@H]([C@@H](C)CC)C(=O)N3)C(=O)N[C@@H]([C@@H](C)CC)C(=O)N2` [RC-100, Retrocyclin] (cyclo(GICRCICGRGICRCICGR); disulfide 3-16, 5-14, 7-12), for which, on gp120 (BaL), the Kd – broadly, the constant that tells how readily two partners part at equilibrium – came out at 29.2 nM; the off-rate constant (koff) (commonly the rate constant with which the complex falls apart) is given as 4.12 × 10^−3; the kon (commonly the second-order rate constant of association) is 14.1 × 10^4. The “inhibition of HIV-1 replication (p24)” value in the assay on HIV-1 strain JR-CSF was “complete suppression; also recorded: uniformly protective”. In addition, the “protection against HSV-2” value in the assay with HSV-2 is on record as “modest protection”. At CD4, this molecule had a dissociation rate constant (koff) of 0.0022 s⁻¹ and a kon of 67700 M⁻¹ s⁻¹.
As to `CC[C@H](C)[C@@H]1NC(=O)CNC(=O)[C@H](CCCCN)NC(=O)CNC(=O)[C@@H]2CSSC[C@H](NC1=O)C(=O)N[C@@H](CCCNC(=N)N)C(=O)N[C@H]1CSSC[C@H](NC(=O)[C@H](CCCNC(=N)N)NC(=O)[C@@H]3CSSC[C@H](NC(=O)[C@H]([C@@H](C)CC)NC1=O)C(=O)NCC(=O)N[C@@H](CCCNC(=N)N)C(=O)NCC(=O)N[C@@H]([C@@H](C)CC)C(=O)N3)C(=O)N[C@@H]([C@@H](C)CC)C(=O)N2` [RC-101, R9K-Retrocyclin], at gp120 (BaL), the dissociation constant Kd turned out to be 20.5 nM, the off-rate constant (koff) was 5.55 × 10^−3 and the association rate constant (kon) is given as 27.0 × 10^4. Moreover, in the assay with HIV-1 strain JR-CSF, the “inhibition of HIV-1 replication (p24)” value is recorded as “as active as retrocyclin”. Also, the “protection against HSV-2” value with HSV-2 is given as “nearly completely protective”. On CD4, this molecule registered a koff of 0.00226 s⁻¹ and an on-rate constant (kon) of 79000 M⁻¹ s⁻¹.
